The results in this text go back to US20220362279A1, “USE OF OLIGONUCLEOTIDES FOR THE TREATMENT AND PREVENTION OF PAIN” (CONSEJO NACIONAL DE INVESTIGACIONES CIENTÍFICAS Y TÉCNICAS, priority 2018, published 2022).

What all share (type): in vivo, rat
The test system of series [1] is rats with hind paw inflammation (CFA rats). Description: Hind paw dorsoventral thickness in rats with CFA-induced hind paw inflammation. Conditions: preventive IMT504 before CFA; whole tested period. As for the experimental part: In fifty-two rats anesthetized with Isoflurane (5% induction, 2.5% maintenance, 0.8 L/min O2 flow rate; Piramal Healthcare, UK), the right hind paw was injected intra-dermally with 100 μl of CFA (1:1, dissolved in normal saline; Sigma-Aldrich, Mo., USA), using a 1 ml syringe with a 25G needle attached. The animals (from now on, called CFA rats) were left to recover from anesthesia in a warm and quiet environment before relocating them in their corresponding cages.
In one set of experiments, called “preventive treatment”, four rats received a daily dose of 20 mg/kg IMT504 for five consecutive days and four weeks later one dose of 6 mg/kg (group a); a second group of four rats received one dose of 6mg/kg of IMT504 (group b) (FIG. 1A). Three days after the single injection of 6 mg/kg IMT504, all eight rats received intra-plantar CFA, after which they were tested for mechanical and cold allodynia during 21 days. At day 28, group b received an additional administration of IMT504 at a dose of 3 mg/kg and was evaluated until day 35. […]
Eight rats received a dose of 6 mg/kg IMT504 (FIGS. 2 and 3). […] On day 28 (FIG. 1) or 28 (FIG. 2), rats receiving preventive IMT504 were administered additional IMT504 at a dose of 3 mg/kg (FIG. 1) or 2 mg/kg (FIG. 2), and assessed until days 21-35.

Series [2] concerns rats with SNI. Description: Mechanical allodynia in rats with spared nerve injury (SNI). The conditions noted are these: single dose of 6 mg/kg seven days after SNI, s.c. The text has this: (§1) In twenty-six rats anesthetized with Isoflurane (5% induction, 2.5% maintenance, 0.8 L/min O2 flow rate; Piramal Healthcare, UK), the right sciatic nerve and its three distal branches were exposed by blunt dissection, and the tibial and common peronneal branches completely sectioned and ligated to prevent regeneration. The third branch, the sural nerve, was left intact. The animals received one single injection of ketoprofen for post-surgical pain control and were left to recover from anesthesia in a warm and quiet environment before relocating them in their corresponding cages.
(§2) Rats were administered subcutaneously using the LT protocol (FIG. 4A) and a single dose of 6 mg/kg of IMT504. This was followed by pain-like behavior testing for up to six weeks after SNI.
Naïve (uninjured and untreated; n=16), CFA injured untreated (n=10), and vehicle-treated CFA (n=9) or SNI rats (n=10) were used as controls. Eight naïve rats remained untreated, four were vehicle-treated, and four received a daily dose of 20 mg/kg IMT504 for five consecutive days. Untreated CFA rats received an intradermal hind paw injection of CFA and no further treatment. Vehicle-treated CFA rats received five daily subcutaneous injections of saline (200 μl), starting seven days after injury. Vehicle-treated SNI rats received one single dose of saline (200 ul), starting seven days after injury. […]

In the next series the test system is naïve rats. Description: Hind paw mechanical withdrawal threshold in naïve rats. Conditions: 20 mg/kg daily x5; observed up to 22 days; vs saline-treated naïve rats. As for the experimental part:
Naïve (uninjured and untreated; n=16), CFA injured untreated (n=10), and vehicle-treated CFA (n=9) or SNI rats (n=10) were used as controls. Eight naïve rats remained untreated, four were vehicle-treated, and four received a daily dose of 20 mg/kg IMT504 for five consecutive days. Untreated CFA rats received an intradermal hind paw injection of CFA and no further treatment. Vehicle-treated CFA rats received five daily subcutaneous injections of saline (200 μl), starting seven days after injury. Vehicle-treated SNI rats received one single dose of saline (200 ul), starting seven days after injury.
For mechanical allodynia assessment, a set of von Frey filaments (Stoelting, Ill., USA) and the modified up-down method of Dixon were used, as described by Chaplan et al. (Chaplan S R, et, al., (1994) J. Neurosci Methods 53: 55-632) to establish the 50% withdrawal threshold. A withdrawal threshold of 6 g or less was considered an allodynic response.

For series [3], the system named is rats with SNI. Description: Cold allodynia in rats with spared nerve injury (SNI). Conditions: single dose of 6 mg/kg seven days after SNI, s.c.
Text: as §1, §2
Naïve (uninjured and untreated; n=16), CFA injured untreated (n=10), and vehicle-treated CFA (n=9) or SNI rats (n=10) were used as controls. Eight naïve rats remained untreated, four were vehicle-treated, and four received a daily dose of 20 mg/kg IMT504 for five consecutive days. Untreated CFA rats received an intradermal hind paw injection of CFA and no further treatment. […]
For cold allodynia assessment, the reaction to the application of a drop of acetone onto the plantar surface of the hind paw was used. Both frequency of withdrawal and cold score (pain-like behavior intensity) were measured.

Entries after “also recorded” stand apart in the source; their conditions may differ. Strand notation (5' to 3'): a small letter for the sugar, then the base; units joined by * are phosphorothioate-linked, units joined directly phosphodiester-linked; [ ] holds rarer units or linkages, { } end groups; capitals alone tell only the bases. d = 2'-deoxy (DNA)

Turning to “IMT504: synthetic phosphorothioate oligodeoxynucleotide with sequence 5′-TCATCATTTTGTCATTTTGTCATT-3′ (SEQ ID No 1) (DNA dT*dC*dA*dT*dC*dA*dT*dT*dT*dT*dG*dT*dC*dA*dT*dT*dT*dT*dG*dT*dC*dA*dT*dT)”, the “effect on hind paw inflammation (dorsoventral paw thickness)” value in series [1] is on record as “does not prevent occurrence of inflammation; also recorded: did not seem to alter the natural course of hind paw inflammation; also recorded: without altering the inflammatory state of the affected hind paw”. Further, in the series on rats with SNI [2], the “full recovery of mechanical withdrawal thresholds” value was “fully recovered from week three and onwards”; the “time from which mechanical withdrawal thresholds are almost at basal levels” value worked out at 12 days after injury. Also, the “hind paw mechanical withdrawal threshold in naïve rats” value in the series with naïve rats is “did not shown changes; also recorded: did not show any evident changes”. Further, in the series on rats with SNI [3], the cold score result was “reduced to basal levels ten days after injury and onwards”; the “cold withdrawal frequency reduced to basal levels” value is listed as “three weeks after injury”.
